Source: the supplement of paper PMC10307832

Experiments:
Experiment in all cases: relative viability (nuclei count vs DMSO), 5 days (fraction); higher = more cells survive
[1] = compound: CC1CC(=O)N(C2=CN=C(N=C2N1C3CCCC3)NC4=C(C=C(C=C4)C(=O)NC5CCN(CC5)C)OC)C [NPK76-II-72-1] + Cc1nc(Nc2ncc(C(=O)Nc3c(C)cccc3Cl)s2)cc(N2CCN(CCO)CC2)n1 [Dasatinib] (partner 0.075 µM)
Method in brief: (§1)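 Lung cancer cell lines were pin-tool dosed in 1536-well plates on the day after seeding, with either a lone drug or a fixed anchor-drug dose plus five library-drug doses (not always all listed) in √10 steps. Nuclei were counted on 4× images after 5 days. Relative viability is the ratio of treated-well to vehicle-well nuclei counts, with each value a median of duplicate plates.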

BI-2536 + Crizotinib = compound: CC[C@@H]1C(=O)N(C)c2cnc(Nc3ccc(C(=O)NC4CCN(C)CC4)cc3OC)nc2N1C1CCCC1 [BI-2536] + C[C@@H](Oc1cc(-c2cnn(C3CCNCC3)c2)cnc1N)c1c(Cl)ccc(F)c1Cl [Crizotinib] (partner 1 µM)
Method in brief: as §1

[2] = compound: CC1CC(=O)N(C2=CN=C(N=C2N1C3CCCC3)NC4=C(C=C(C=C4)C(=O)NC5CCN(CC5)C)OC)C [NPK76-II-72-1] + Cc1nc(NC(=O)N2CCC[C@H]2C(N)=O)sc1-c1ccnc(C(C)(C)C(F)(F)F)c1 [Alpelisib] (partner 2 µM)
Method in brief: as §1

BI-2536 + Foretinib = compound: CC[C@@H]1C(=O)N(C)c2cnc(Nc3ccc(C(=O)NC4CCN(C)CC4)cc3OC)nc2N1C1CCCC1 [BI-2536] + COc1cc2c(Oc3ccc(NC(=O)C4(C(=O)Nc5ccc(F)cc5)CC4)cc3F)ccnc2cc1OCCCN1CCOCC1 [Foretinib] (partner 0.25 µM)
Method in brief: as §1

Row | Cell Line | relative viability ([1]; first compound 0.01 µM) | relative viability ([1]; first compound 0.03162 µM) | relative viability ([1]; first compound 0.1 µM) | relative viability ([1]; first compound 0.3162 µM) | relative viability ([1]; first compound 1 µM) | relative viability (BI-2536 + Crizotinib; first compound 0.01 µM) | relative viability (BI-2536 + Crizotinib; first compound 0.03162 µM) | relative viability (BI-2536 + Crizotinib; first compound 0.1 µM) | relative viability (BI-2536 + Crizotinib; first compound 0.3162 µM) | relative viability (BI-2536 + Crizotinib; first compound 1 µM) | relative viability ([2]; first compound 0.01 µM) | relative viability ([2]; first compound 0.03162 µM) | relative viability ([2]; first compound 0.1 µM) | relative viability ([2]; first compound 0.3162 µM) | relative viability ([2]; first compound 1 µM) | relative viability (BI-2536 + Foretinib; first compound 0.01 µM) | relative viability (BI-2536 + Foretinib; first compound 0.03162 µM) | relative viability (BI-2536 + Foretinib; first compound 0.1 µM) | relative viability (BI-2536 + Foretinib; first compound 0.3162 µM) | relative viability (BI-2536 + Foretinib; first compound 1 µM)
1 | NCI-H2228 | 0.367 | 0.547 | 0.495 | 0.566 | 0.619 | 0.547 | 0.466 | 0.236 | 0.207 | 0.172 | 0.595 | 0.81 | 0.555 | 0.733 | 0.807 | 1.05 | 0.583 | 0.217 | 0.15 | 0.156
2 | NCI-H2347 | 0.309 | 0.297 | 0.348 | 0.348 | 0.327 | 0.675 | 0.692 | 0.675 | 0.345 | 0.445 | 0.992 | 1 | 1.07 | 1.07 | 1.11 | 1.07 | 0.742 | 0.933 | 0.311 | 0.292
3 | NCI-H2405 | 0.236 | 0.209 | 0.194 | 0.213 | 0.212 | 0.807 | 0.778 | 0.532 | 0.223 | 0.312 | 0.654 | 0.853 | 0.753 | 0.744 | 0.921 | 1.05 | 0.731 | 0.386 | 0.296 | 0.354
4 | NCI-H3122 | 0.796 | 0.802 | 0.76 | 0.697 | 0.956 | 0.294 | 0.272 | 0.242 | 0.182 | 0.199 | 0.709 | 0.724 | 0.789 | 0.838 | 0.776 | 0.969 | 0.916 | 0.488 | 0.122 | 0.118
5 | PC-3 [JPC-3] | 0.937 | 1.02 | 0.916 | 0.973 | 1.07 | 1.04 | 0.846 | 0.871 | 0.33 | 0.244 | 1.01 | 0.949 | 0.987 | 0.985 | 1.09 | 1.06 | 0.914 | 0.753 | 0.17 | 0.187
6 | PC-14 | 0.271 | 0.238 | 0.272 | 0.227 | 0.293 | 0.852 | 0.793 | 0.792 | 0.116 | 0.0584 | 0.943 | 0.956 | 0.946 | 0.916 | 1.04 | 0.961 | 0.93 | 0.895 | 0.0827 | 0.0753
7 | RERF-LC-KJ | 0.818 | 0.886 | 0.722 | 0.732 | 0.808 | 0.894 | 0.711 | 0.764 | 0.174 | 0.218 | 0.727 | 0.928 | 0.773 | 0.683 | 0.86 | 1 | 0.88 | 0.897 | 0.189 | 0.213
8 | SK-LU-1 | 0.188 | 0.181 | 0.207 | 0.202 | 0.172 | 0.857 | 0.51 | 0.357 | 0.299 | 0.279 | 1.04 | 1.03 | 0.945 | 1.01 | 1.18 | 0.839 | 0.778 | 0.291 | 0.213 | 0.197
9 | SK-MES-1 | 0.468 | 0.352 | 0.399 | 0.341 | 0.403 | 0.997 | 1.01 | 0.86 | 0.212 | 0.18 | 0.835 | 0.847 | 0.868 | 0.907 | 0.883 | 0.926 | 0.778 | 0.927 | 0.204 | 0.168
10 | SW 1573 | 0.46 | 0.592 | 0.556 | 0.589 | 0.509 | 0.774 | 0.905 | 0.708 | 0.17 | 0.126 | 0.7 | 0.891 | 0.7 | 0.764 | 0.819 | 0.878 | 0.91 | 0.936 | 0.196 | 0.158
